Here are results for 7 compounds from patent US6706702B2, “Aryl fused azapolycyclic compounds” (Pfizer Inc., priority 1998, dated 2004).

A word on the melting point: it is the temperature, or range, at which the solid turns liquid.

`Cl.FC(F)Oc1ccc2c(c1)CC1CNCC2C1` (stereo not shown) returned a melting point of 230 to 234 °C. The figure for `Cl.O=[N+]([O-])c1ccc2c(c1)C1CNCC(C2)C1` (stereo not shown) is 215 to 220 °C. In the case of `Cl.Fc1ccc2c(c1)CC1CC2CN(Cc2ccccc2)C1` (stereo not shown) it was 202 to 203 °C; in that of `Cl.c1c2c(cc3c1OCO3)C1CNCC(C2)C1` (stereo not shown), 241 to 243 °C; in that of `COc1cccc2c1CC1CNCC2C1.Cl` (stereo not shown), 272 to 274 °C. The figure for `Cl.c1cncc(-c2ccc3c(c2)CC2CNCC3C2)c1` (stereo not shown) is 240 to 242 °C.

The compound `COc1ccc2c(c1)CC1CNCC2C1.Cl` (stereo not shown) displayed a melting point of 253.5 to 258 °C.
